According to patent US12540128B2, “Substituted pyridazinones as herbicides” (SYNGENTA CROP PROTECTION AG, priority 2019, dated 2026):

Key:
Type in all cases: in vivo
Details in all cases: 250 g/ha, after 13 days
Setaria faberi (SETFA) [1] = test: B2 Post-Emergence Efficacy Test 2
Experimental: (§1) Seeds of a variety of test species are sown in standard soil in pots:— Amaranthus retoflexus (AMARE), Setaria faberi (SETFA), Echinochloa crus-galli (ECHCG), Ipomoea hederacea (IPOHE), Zea Mays (ZEAMX), Abutilon theophrasti (ABUTH). After 8 days cultivation (post-emergence) under controlled conditions in a glasshouse (at 24/16° C., day/night; 14 hours light; 65% humidity), the plants are sprayed with an aqueous spray solution derived from the formulation of the technical active ingredient in acetone/water (50:50) solution containing 0.5% Tween 20 (polyoxyethylene sorbitan monolaurate, CAS RN 9005-64-5). Compounds are applied at 250 g/ha. The test plants are then grown in a glasshouse under controlled conditions in a glasshouse (at 24/16° C., day/night; 14 hours light; 65% humidity) and watered twice daily. After 13 days, the test is evaluated for the percentage damage caused to the plant. The biological activities are assessed on a five point scale (5=80-100%; 4=60-79%; 3=40-59%; 2=20-39%; 1=0-19%). A blank value in the table is indicative that the compound was not tested on that species.

Zea Mays (ZEAMX) [2] = test: B2 Post-Emergence Efficacy Test 2
Experimental: as §1

[3] = test system: Ipomoea hederacea (IPOHE); test: B2 Post-Emergence Efficacy Test 2
Experimental: as §1

[4] = test system: Abutilon theophrasti (ABUTH); test: B2 Post-Emergence Efficacy Test 2
Experimental: as §1

[5] = test system: Echinochloa crus-galli (ECHCG); test: B2 Post-Emergence Efficacy Test 2
Experimental: as §1

[6] = test system: Amaranthus retoflexus (AMARE); test: B2 Post-Emergence Efficacy Test 2
Experimental: as §1

Setaria faberi (SETFA) [7] = test: B4 Pre-Emergence Efficacy Test 2
Experimental: (§2) Seeds of a variety of test species were sown in standard soil in pots: Amaranthus retoflexus (AMARE), Setaria faberi (SETFA), Echinochloa crus-galli (ECHCG), Ipomoea hederacea (IPOHE), Zea Mays (ZEAMX), Abutilon theophrasti (ABUTH). After cultivation for one day (pre-emergence) under controlled conditions in a glasshouse (at 24/16° C., day/night; 14 hours light; 65% humidity), the plants were sprayed with an aqueous spray solution derived from the formulation of the technical active ingredient in acetone/water (50:50) solution containing 0.5% Tween 20 (polyoxyethelyene sorbitan monolaurate, CAS RN 9005-64-5). Compounds are applied at 250 g/ha. The test plants were then grown in a glasshouse under controlled conditions (at 24/16° C., day/night; 14 hours light; 65% humidity) and watered twice daily. After 13 days, the test is evaluated for the percentage damage caused to the plant. The biological activities are assessed on a five point scale (5=80-100%; 4=60-79%; 3=40-59%; 2=20-39%; 1=0-19%). A blank value in the table is indicative that the compound was not tested on that species.

Zea Mays (ZEAMX) [8] = test: B4 Pre-Emergence Efficacy Test 2
Experimental: as §2

[9] = test system: Ipomoea hederacea (IPOHE); test: B4 Pre-Emergence Efficacy Test 2
Experimental: as §2

[10] = test system: Abutilon theophrasti (ABUTH); test: B4 Pre-Emergence Efficacy Test 2
Experimental: as §2

[11] = test system: Echinochloa crus-galli (ECHCG); test: B4 Pre-Emergence Efficacy Test 2
Experimental: as §2

[12] = test system: Amaranthus retoflexus (AMARE); test: B4 Pre-Emergence Efficacy Test 2
Experimental: as §2

Compound | percentage damage caused to the plant, five point scale, SETFA (Setaria faberi (SETFA) [1]) | percentage damage caused to the plant, five point scale, ZEAMX (Zea Mays (ZEAMX) [2]) | percentage damage caused to the plant, five point scale, IPOHE [3] | percentage damage caused to the plant, five point scale, ABUTH [4] | percentage damage caused to the plant, five point scale, ECHCG [5] | percentage damage caused to the plant, five point scale, AMARE [6] | percentage damage caused to the plant, five point scale, SETFA (Setaria faberi (SETFA) [7]) | percentage damage caused to the plant, five point scale, ZEAMX (Zea Mays (ZEAMX) [8]) | percentage damage caused to the plant, five point scale, IPOHE [9] | percentage damage caused to the plant, five point scale, ABUTH [10] | percentage damage caused to the plant, five point scale, ECHCG [11] | percentage damage caused to the plant, five point scale, AMARE [12]
Cc1nn(C)c(=O)c(-c2c(F)ccc(Cl)c2CCc2ccc3ncsc3c2)c1O [Compound 1.349] | 4 (4=60-79%) | 2 (2=20-39%) | 4 (4=60-79%) | 4 (4=60-79%) | 4 (4=60-79%) | 4 (4=60-79%) | 5 (5=80-100%) | 4 (4=60-79%) | 5 (5=80-100%) | 4 (4=60-79%) | 5 (5=80-100%) | 5 (5=80-100%)
Cc1nn(C)c(=O)c(-c2c(F)ccc(Cl)c2CCc2ccc3scnc3c2)c1O [Compound 1.350, 4-[2-[2-(1,3-benzothiazol-5-yl)ethyl]-3-chloro-6-fluoro-phenyl]-5-hydroxy-2,6-dimethyl-pyridazin-3-one] | 4 (4=60-79%) | 3 (3=40-59%) | 3 (3=40-59%) | 5 (5=80-100%) | 4 (4=60-79%) | 4 (4=60-79%) | 5 (5=80-100%) | 4 (4=60-79%) | 5 (5=80-100%) | 5 (5=80-100%) | 5 (5=80-100%) | 5 (5=80-100%)
Cc1nn(C)c(=O)c(-c2c(F)ccc(Cl)c2CCc2ccc3c(C)noc3c2)c1O [Compound 1.351] | 4 (4=60-79%) | 5 (5=80-100%) | 5 (5=80-100%) | 5 (5=80-100%) | 4 (4=60-79%) | 5 (5=80-100%) | 5 (5=80-100%) | 5 (5=80-100%) | 5 (5=80-100%) | 5 (5=80-100%) | 5 (5=80-100%) | 5 (5=80-100%)
Cc1nn(C)c(=O)c(-c2c(F)ccc(Cl)c2CCc2ccc3oc(=O)[nH]c3c2)c1O [Compound 1.352] | 4 (4=60-79%) | 3 (3=40-59%) | 3 (3=40-59%) | 4 (4=60-79%) | 4 (4=60-79%) | 4 (4=60-79%) | 5 (5=80-100%) | 4 (4=60-79%) | 3 (3=40-59%) | 4 (4=60-79%) | 3 (3=40-59%) | 5 (5=80-100%)
Cc1nn(C)c(=O)c(-c2c(F)ccc(Cl)c2CCc2ccc3cnn(C)c3c2)c1O [Compound 1.353] | 4 (4=60-79%) | 3 (3=40-59%) | 3 (3=40-59%) | 4 (4=60-79%) | 4 (4=60-79%) | 4 (4=60-79%) | 5 (5=80-100%) | 4 (4=60-79%) | 5 (5=80-100%) | 4 (4=60-79%) | 5 (5=80-100%) | 5 (5=80-100%)
Cc1nn(C)c(=O)c(-c2c(F)ccc(Cl)c2CCc2ccc3c(cnn3C)c2)c1O [Compound 1.354] | 4 (4=60-79%) | 4 (4=60-79%) | 4 (4=60-79%) | 4 (4=60-79%) | 5 (5=80-100%) | 4 (4=60-79%) | 5 (5=80-100%) | 4 (4=60-79%) | 5 (5=80-100%) | 4 (4=60-79%) | 5 (5=80-100%) | 4 (4=60-79%)
Cc1nn(C)c(=O)c(-c2c(F)ccc(Cl)c2CCc2ccc3ccn(C)c3c2)c1O [Compound 1.355] | 2 (2=20-39%) | 1 (1=0-19%) | 4 (4=60-79%) | 3 (3=40-59%) | 1 (1=0-19%) | 4 (4=60-79%) | 1 (1=0-19%) | 1 (1=0-19%) | 2 (2=20-39%) | 0 | 0 | 3 (3=40-59%)
Cc1nn(C)c(=O)c(-c2c(F)ccc(Cl)c2CCc2ccc3c(ccn3C)c2)c1O [Compound 1.356] | 5 (5=80-100%) | 2 (2=20-39%) | 4 (4=60-79%) | 4 (4=60-79%) | 4 (4=60-79%) | 5 (5=80-100%) | 1 (1=0-19%) | 0 | 2 (2=20-39%) | 1 (1=0-19%) | 1 (1=0-19%) | 3 (3=40-59%)
Cc1nn(C)c(=O)c(-c2c(F)ccc(Cl)c2CCc2nc3ccccc3o2)c1O [Compound 1.359] | 3 (3=40-59%) | 1 (1=0-19%) | 2 (2=20-39%) | 4 (4=60-79%) | 3 (3=40-59%) | 3 (3=40-59%) | 5 (5=80-100%) | 3 (3=40-59%) | 4 (4=60-79%) | 5 (5=80-100%) | 5 (5=80-100%) | 5 (5=80-100%)
